The values that follow come from patent US20060233893A1, “Aqueous solutions for the reduction of fatty tissue” (priority 2004, published 2006).

The assay deals with fatty tissue. As to the kind of experiment: administration of solutions to fatty tissue in aesthetic treatment of cellulite by lipotomy. Format: in vivo. As to conditions: added to solution of approximately from 20 to 90 mOsm/l.

In the case of `O=C(O)Cc1cc(I)c(Oc2ccc(O)c(I)c2)c(I)c1` [tiratricol, triiodothyroacetic acid], the “efficacy of a highly hypotonic lipotomy solution in the destruction of fatty tissue” value is reported as “increased the efficacy”.
As for phosphatidylcholine, the “efficacy of a highly hypotonic lipotomy solution in the destruction of fatty tissue” value is reported as “increased the efficacy”.
